Test results as given in patent publication US7195901B1 (priority 2004, dated 2007).

Test system: yeast endogenous DGAT
Format: biochemical, S. cerevisiae
Details: 1 mM diricinolein; yeast grown under repression (2% glucose) condition

In the case of 1,2-diricinolein, the “absolute incorporation of 14C-oleate into RRO” value is reported as “less than 20 pmol/mg/min”.
